Experimental data taken from publication PMC6099553, “Novel Structural Insight into Inhibitors of Heme Oxygenase-1 (HO-1) by New Imidazole-Based Compounds: Biochemical and In Vitro Anticancer Activity Evaluation” (Molecules : A Journal of Synthetic Chemistry and Natural …, 2018).

Experiments:
[1] = tested on: HO-2; design: method as in PMID 23097500; conditions: Figure 1; cited from earlier work
[2] = tested on: HO-1; design: method as in PMID 23097500; conditions: Figure 1; cited from earlier work
[3] = tested on: MCF-7 cells; assay: In vitro cytotoxicity, sulforhodamine B assay, MCF-7; format: cell-based; conditions: Homo sapiens, MCF7; hormone-sensitive breast cancer cells, 72 h, SRB
Procedure: (§1) MDA-MB-231 cells (hormone resistant), MCF-7 (hormone sensitive), PC3 cells (hormone resistant), DU145 cells (hormone resistant), LnCap cells (hormone sensitive), B16, and HEK cells were maintained in complete growth media (DMEM/Ham’s F12 supplemented with 10% fetal bovine serum, […], 100 units/mL penicillin, 100 units/mL of streptomycin, and 2.2 g/L of NaHCO3) at 37 °C in a humidified atmosphere of 5% CO2. For all procedures, cells were harvested using TrypLE Express (Life Technologies, Auckland, New Zealand).
To test the cytotoxic effect of HO inhibitors, cells (8 × 10^3 cells/well) were seeded into 96-well plates and incubated for 24 h. This was followed by treatment with HO inhibitors at the concentrations 1.1–200 μM (1.1–1000 μM for HEK cells) of compound 1. In addition, the cytotoxicity of doxorubicin (5 μM, 10 μM, and 30 μM) and a combination of doxorubicin 5 μM and 37 μM 1 was assessed using B16 cells. In all experiments, the cells were incubated for 72 h. Following the incubation, cells were fixed using 10% trichloroacetic acid (TCA). Cytotoxicity was determined using the sulforhodamine B assay as previously described. […]
Figure 3 Cytotoxicity of compound 1 against MCF-7 and B16 cells. […] At the end of treatment, cell number was determined using the sulforhodamine B assay. Data are expressed as mean ± SEM (n = 3). […]

[4] = tested on: DU145 cells; assay: In vitro cytotoxicity, sulforhodamine B assay, DU145; format: cell-based; conditions: Homo sapiens, DU-145; hormone-resistant prostate cancer cells, 72 h, SRB
Procedure: as §1
(§2) To test the cytotoxic effect of HO inhibitors, cells (8 × 10^3 cells/well) were seeded into 96-well plates and incubated for 24 h. This was followed by treatment with HO inhibitors at the concentrations 1.1–200 μM (1.1–1000 μM for HEK cells) of compound 1. In addition, the cytotoxicity of doxorubicin (5 μM, 10 μM, and 30 μM) and a combination of doxorubicin 5 μM and 37 μM 1 was assessed using B16 cells. In all experiments, the cells were incubated for 72 h. Following the incubation, cells were fixed using 10% trichloroacetic acid (TCA). Cytotoxicity was determined using the sulforhodamine B assay as previously described. […] Treatments were performed in triplicate and data represents mean of three independent experiments.

[5] = tested on: HEK cells; assay: In vitro cytotoxicity, sulforhodamine B assay, HEK (healthy cells); format: cell-based, human
Procedure: as §1, §2

[6] = tested on: MDA-MB-231 cells; assay: In vitro cytotoxicity, sulforhodamine B assay, MDA-MB-231; format: cell-based; conditions: Homo sapiens, hormone-resistant breast cancer cells, 72 h, SRB
Procedure: as §1, §2

[7] = tested on: B16 cells; assay: In vitro cytotoxicity, sulforhodamine B assay, B16 (alone and with doxorubicin); format: cell-based, murine; conditions: for IC50: murine melanoma cells, 72 h, SRB
Procedure: as §1
as §2, with “In addition, the cytotoxicity of doxorubicin (5 μM, 10 μM, and 30 μM) and a combination of doxorubicin 5 μM and 37 μM 1 was assessed using B16 cells.” left out
Figure 3 Cytotoxicity of compound 1 against MCF-7 and B16 cells. (A) MCF-7 (hormone-sensitive breast cancer cells) and (B) B16 (melanoma) cells were treated with 1.1–200 μM of compound 1 for 72 h. Control wells were treated with vehicle only (0.2% DMSO). At the end of treatment, cell number was determined using the sulforhodamine B assay. Data are expressed as mean ± SEM (n = 3). Non-linear regression and IC50 values determination were performed using GraphPad Prism 6.
Figure 4 Cytotoxicity of compound 1 in combination with different concentration of doxorubicin (doxo) against B16 cells. Data are expressed as mean ± SEM (n = 3). *** Significant vs. untreated control cells: p < 0.001.

[8] = tested on: PC3 cells; assay: In vitro cytotoxicity, sulforhodamine B assay, PC3; format: cell-based; conditions: Homo sapiens, PC-3; hormone-resistant prostate cancer cells, 72 h, SRB
Procedure: as §1, §2

[9] = tested on: LnCap cells; assay: In vitro cytotoxicity, sulforhodamine B assay, LnCap; format: cell-based; conditions: Homo sapiens, hormone-sensitive prostate cancer cells, 72 h, SRB
Procedure: as §1, §2

[10] = target: T1, HO-1 (Rattus norvegicus, UniProt P06762); assay: HO-1 inhibition, rat spleen microsomal fraction, bilirubin formation; format: biochemical; conditions: for IC50: rat spleen microsomes, mean ± SD, triplicate
T1 construct: selected in order to use the most native (i.e., closest to in vivo) forms of HO-1 and HO-2; from tissue; host or cells: spleen microsomal fraction of male Sprague-Dawley rats
T1 sequence (P06762 1-289): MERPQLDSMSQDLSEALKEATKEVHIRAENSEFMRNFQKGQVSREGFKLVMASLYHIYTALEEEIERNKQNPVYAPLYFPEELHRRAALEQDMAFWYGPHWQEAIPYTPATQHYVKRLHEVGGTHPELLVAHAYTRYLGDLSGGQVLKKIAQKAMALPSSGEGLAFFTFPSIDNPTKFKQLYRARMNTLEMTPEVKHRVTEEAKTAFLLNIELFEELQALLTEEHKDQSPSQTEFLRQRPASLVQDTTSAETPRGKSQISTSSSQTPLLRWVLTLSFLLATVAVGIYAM
Procedure: Inhibition activity assay for HO-1 was performed by extracting the enzyme from the rat spleen microsomal fraction. HO-1 activity was determined by measuring the formation of BR using the difference in absorbance at 464–530 nm, as described in the experimental section. Inhibition activity data are expressed as IC50 (μM) and obtained results are outlined in Table 2, utilizing Azalanstat as a reference compound.
HO-1 and HO-2 were obtained from rat spleen and brain, respectively, as the microsomal fraction prepared by differential centrifugation; the dominance of HO-1 protein in the rat spleen and of HO-2 in the rat brain has been well documented. These particular microsomal preparations were selected in order to use the most native (i.e., closest to in vivo) forms of HO-1 and HO-2. Spleen and brain (Sprague–Dawley rats) microsomal fractions were prepared according to the procedure outlined by Ryter et al.. The experiments reported in the present paper complied with current Italian law and met the guidelines of the Institutional Animal Care and Use Committee of University of Catania (Italy). The experiments were performed in male Sprague–Dawley albino rats (150 g body weight and age 45 d). They had free access to water and were kept at room temperature with a natural photo-period (12 h light-12 h dark cycle). For measuring HO-1 and HO-2 activities, each rat was sacrificed and their spleen and brain were excised and weighed. A homogenate (15%, w/v) of spleens and brains pooled from four rats was prepared in ice-cold HO-homogenizing buffer (50 mM Tris buffer, pH 7.4, containing 0.25 M sucrose) using a Potter–Elvehjem homogenizing system with a Teflon pestle. The microsomal fraction of rat spleen and brain homogenate was obtained by centrifugation at 10,000 rpm for 20 min at 4 °C, followed by centrifugation of the supernatant at 100,000 rpm for 60 min at 4 °C. The 100,000 rpm pellet (microsomes) was resuspended in 100 mM potassium phosphate buffer, pH 7.8, containing 2 mM MgCl2 with a Potter–Elvehjem homogenizing system. The rat spleen and brain microsomal fractions were divided into equal aliquots, placed into microcentrifuge tubes, and stored at −80 °C for up to 2 months. Protein concentration of the microsomal fraction was determined by Lowry method.
(§3) Liver cytosol has been used as a source of biliverdin reductase (BVR). […] The 100,000 rpm supernatant was saved and then stored in small amounts at −80 °C after its protein concentration was measured.
(§4) The HO-1 and HO-2 activities were determined by measuring the BR formation using the difference in absorbance at 464 to 530 nm as described by Ryter et al.. […] After recovering the chloroform phase, the amount of BR formed was measured with a double-beam spectrophotometer as OD464-530 nm (extinction coefficient, 40 mM/cm^−1 for BR). […]

[11] = target: T2, HO-2 (Rattus norvegicus, UniProt P23711); assay: HO-2 inhibition, rat brain microsomal fraction, bilirubin formation; format: biochemical; conditions: rat brain microsomes; mean ± SD, triplicate
T2 construct: selected in order to use the most native (i.e., closest to in vivo) forms of HO-1 and HO-2; from tissue; host or cells: brain microsomal fraction of male Sprague-Dawley rats
T2 sequence (P23711 1-315): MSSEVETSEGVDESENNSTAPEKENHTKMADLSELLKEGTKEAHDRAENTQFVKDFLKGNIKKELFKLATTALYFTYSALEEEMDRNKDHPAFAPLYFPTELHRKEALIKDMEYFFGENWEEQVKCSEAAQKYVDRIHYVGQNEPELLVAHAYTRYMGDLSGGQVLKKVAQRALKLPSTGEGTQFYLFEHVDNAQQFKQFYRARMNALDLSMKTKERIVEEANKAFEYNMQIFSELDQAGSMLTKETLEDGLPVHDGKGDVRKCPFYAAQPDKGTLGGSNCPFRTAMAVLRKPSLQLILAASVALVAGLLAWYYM
Procedure: HO-1 and HO-2 were obtained from rat spleen and brain, respectively, as the microsomal fraction prepared by differential centrifugation; the dominance of HO-1 protein in the rat spleen and of HO-2 in the rat brain has been well documented. These particular microsomal preparations were selected in order to use the most native (i.e., closest to in vivo) forms of HO-1 and HO-2. Spleen and brain (Sprague–Dawley rats) microsomal fractions were prepared according to the procedure outlined by Ryter et al.. The experiments reported in the present paper complied with current Italian law and met the guidelines of the Institutional Animal Care and Use Committee of University of Catania (Italy). The experiments were performed in male Sprague–Dawley albino rats (150 g body weight and age 45 d). […] Protein concentration of the microsomal fraction was determined by Lowry method.
as §3, §4

For `FC(F)(F)c1ccc(SC[C@@H]2CO[C@@](CCc3ccc(Cl)cc3)(Cn3ccnc3)O2)nc1` [QC-80], the IC50 [1] is given as 16 µM and the IC50 [2] is given as 2.1 µM.
For `Clc1ccc(CCC2(Cn3ccnc3)OCCO2)cc1` [QC-15], the IC50 [1] is listed as over 100 µM and the IC50 [2] is listed as 2.8 µM.
Compound `OC(Cn1ccnc1)c1cccc(Br)c1` (stereo not drawn) [Compound 1] has an IC50 [3] of 52.6 ± 3.76 µM, an IC50 [4] of 138 ± 2.7 µM and an IC50 ([5]; HEK293, non-cancerous human embryonic kidney cells, 72 h, SRB) of 364 ± 21.3 µM. For the same compound, the “Selectivity for cancer cells with respect to healthy cells” value ([5]; cancer cell lines vs HEK) was 2–10 fold, the IC50 [6] was 82.6 ± 0.57 µM and the IC50 ([7]; Mus musculus, B16, 72 h) was 42 µM. For the same compound, the “Cytotoxic effect in combination with doxorubicin” value ([7]; compound 1 (10 μM) with doxorubicin (5 μM), B16 cells) was “synergistic cytotoxic effect”, the IC50 [7] was 37 ± 7.25 µM and the IC50 [8] was 165 ± 2.8 µM. The IC50 [9] was 158 ± 2.3 µM.
In the case of `O=C(CCc1ccccc1)Cn1cncn1` [QC-86], the IC50 [1] is listed as 18 µM.
For `OC(Cn1ccnc1)C12CC3CC(CC(C3)C1)C2` (stereo not drawn) [Compound 4, 2-(1H-Imidazol-1-yl)-1-tricyclo[3.3.1.13,7]dec-1-yl-ethanol], the IC50 [10] was 67.6 ± 2.1 µM and the melting point was 182 to 183 °C.
For `O=C(Cn1ccnc1)NC(c1ccccc1)c1ccccc1` [Compound 3, N-Benzhydryl-2-(1H-imidazol-1-yl)acetamide], the IC50 [10] was 28.8 ± 1.4 µM, the IC50 [11] was 14.4 ± 0.9 µM and the melting point was 196 to 197 °C.
With `Brc1cccc(C(Cn2ccnc2)OCc2ccccc2)c1` (stereo not drawn) [Compound 2, 1-[2-(3-Bromophenyl)-2-(phenylmethoxy)ethyl]-1H-imidazole] the IC50 [10] was 80 ± 3.3 µM and the “fold less potent towards HO-1 than parent compound 1” value ([10]; ratio of HO-1 IC50 values) was “around 200 fold”.
In the case of `O=C(Cn1ccnc1)C12CC3CC(CC(C3)C1)C2` [QC-82], the IC50 [1] is given as over 100 µM and the IC50 [2] is given as 3 µM.
In the case of `Nc1ccc(SC[C@@H]2CO[C@](CCc3ccc(Cl)cc3)(Cn3ccnc3)O2)cc1` [Azalanstat], the IC50 [1] is listed as 24.4 µM and the IC50 [2] is listed as 5.3 µM.
